This experiment addresses T1, Human PPARα (Homo sapiens, UniProt Q07869).
T1 construct: host or cells: proprietary non-human mammalian cells
T1 sequence (Q07869 1-468): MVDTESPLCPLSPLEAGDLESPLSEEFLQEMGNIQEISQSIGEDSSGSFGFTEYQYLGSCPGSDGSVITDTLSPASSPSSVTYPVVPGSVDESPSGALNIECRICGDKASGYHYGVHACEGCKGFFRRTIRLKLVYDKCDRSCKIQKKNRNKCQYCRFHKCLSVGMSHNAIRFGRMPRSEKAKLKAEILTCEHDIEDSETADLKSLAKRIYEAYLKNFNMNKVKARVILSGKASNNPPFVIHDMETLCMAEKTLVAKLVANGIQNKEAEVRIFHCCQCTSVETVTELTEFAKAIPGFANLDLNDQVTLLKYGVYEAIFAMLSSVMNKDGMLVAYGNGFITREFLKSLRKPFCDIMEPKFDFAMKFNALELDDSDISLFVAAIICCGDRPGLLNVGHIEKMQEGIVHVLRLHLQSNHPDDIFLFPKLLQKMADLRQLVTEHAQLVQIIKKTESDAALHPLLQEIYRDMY
Briefly: Human PPARα Reporter Assay (luciferase). Type of experiment: cell-based. The following applies: human PPARα reporter cells, overnight incubation, antagonism; read-out: Luciferase IC50. In short, it runs like this:
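Non-human mammalian cells constitutively expressing human PPARα with a PPARα-responsive luciferase reporter were dosed with compounds right after plating. After overnight incubation, media removed and detection reagent added; luminescence taken as proportional to PPARα activation, agonist or antagonist mode.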
On the technique in general: In a reporter assay the amount or activity of a reporter protein is the signal.
Usually IC50 stands for the concentration that gives 50% inhibition. Consider `CCOc1ccc(-c2ccc(CCCc3nn(Cc4ccc(C(C)(C)C)cc4)c(=O)n3CC)cc2)nc1NS(=O)(=O)c1ccccc1` [Example 62, 1-{[4-(tert-Butyl)phenyl]methyl}-3-[3-(4-{5-ethoxy-6-[(phenylsulfonyl)amino](2-pyridyl)}phenyl)propyl]-4-ethyl-1,2,4-triazolin-5-one], for which the IC50 amounted to 0.005 µM. `CCn1c(CCCc2ccc(-c3ccc(F)c(CC(=O)O)c3)cc2)nn(Cc2ccc(C(C)(C)C)cc2)c1=O` [Example 33, 2-(4′-(3-(1-(4-(tert-Butyl)benzyl)-4-ethyl-5-oxo-4,5-dihydro-1H-1,2,4-triazol-3-yl)propyl)-4-fluoro-[1,1′-biphenyl]-3-yl)acetic acid]: the IC50 came to 0.427 µM.

`CCn1c(CCCc2ccc(-c3cccc(/C=C/C(=O)O)c3)cc2)nn(Cc2ccc(C(C)(C)C)cc2)c1=O` [Example 34, 3-(4′-(3-(1-(4-(tert-Butyl)benzyl)-4-ethyl-5-oxo-4,5-dihydro-1H-1,2,4-triazol-3-yl)propyl)-[1,1′-biphenyl]-3-yl)acrylic acid]: the half-maximal inhibitory concentration (IC50) came to 1.45 µM. On to `CCn1c(CCCc2ccc(-c3cccc(CC(=O)O)c3)cc2)nn(Cc2ccc(C(C)(C)C)s2)c1=O` [Example 54, 2-(4′-(3-(1-((5-(tert-Butyl)thiophen-2-yl)methyl)-4-ethyl-5-oxo-4,5-dihydro-1H-1,2,4-triazol-3-yl)propyl)-[1,1′-biphenyl]-3-yl)acetic acid], for which the IC50 stood at 0.499 µM. For `CCn1c(CCCc2ccc(-c3cc(NS(=O)(=O)c4ccccc4)ccn3)cc2)nn(Cc2ccc(C(C)(C)C)cc2)c1=O` [Example 16, N-(2-(4-(3-(1-(4-(tert-Butyl)benzyl)-4-ethyl-5-oxo-4,5-dihydro-1H-1,2,4-triazol-3-yl)propyl)phenyl)pyridin-4-yl)benzenesulfonamide], the IC50 was found to be 0.09 µM.

In the case of `CCn1c(CCCc2ccc(-c3cccc(C(C)(C)C(N)=O)c3)cc2)nn(Cc2ccc(C(C)(C)C)cc2)c1=O` [Example 15, 2-(4′-(3-(1-(4-(tert-Butyl)benzyl)-4-ethyl-5-oxo-4,5-dihydro-1H-1,2,4-triazol-3-yl)propyl)-[1,1′-biphenyl]-3-yl)-2-methylpropanamide], the IC50 came to 0.519 µM. Regarding `CC(C)n1c(CCCc2ccc(-c3cccc(CC(=O)O)c3)cc2)nn(Cc2ccc(C(C)(C)C)cc2)c1=O` [Example 31, 2-(4′-(3-(1-(4-(tert-Butyl)benzyl)-4-isopropyl-5-oxo-4,5-dihydro-1H-1,2,4-triazol-3-yl)propyl)-[1,1′-biphenyl]-3-yl)acetic acid], the IC50 is 1.96 µM. The result for `CCn1c(CCCc2ccc(-c3cccc(CC(=O)O)c3)cc2)nn(Cc2ccc(C(C)(C)C)cc2)c1=O` [Example 1, 2-(4′-(3-(1-(4-(tert-Butyl)benzyl)-4-ethyl-5-oxo-4,5-dihydro-1H-1,2,4-triazol-3-yl)propyl)-[1,1′-biphenyl]-3-yl)acetic acid] reads 0.095 µM; that for `CCn1c(CCCc2ccc(-c3cccc(NS(=O)(=O)c4ccc(-c5ccc(C)cc5)cc4)n3)cc2)nn(Cc2ccc(C(C)(C)C)cc2)c1=O` [Example 73, 1-{[4-(tert-Butyl)phenyl]methyl}-4-ethyl-3-(3-{4-[6-({[4-(4-methylphenyl)phenyl]sulfonyl}amino)(2-pyridyl)]phenyl}propyl)-1,2,4-triazolin-5-one], 0.062 µM; that for `CCn1c(CCCc2ccc(-c3cccc(CC(=O)O)c3)cc2)nn(Cc2ccc(C(C)(C)C)c(C3CC3)c2)c1=O` [Example 85, 2-(4′-(3-(1-(3-Cyclopropyl-4-(tert-butyl)benzyl)-4-ethyl-5-oxo-4,5-dihydro-1H-1,2,4-triazol-3-yl)propyl)-[1,1′-biphenyl]-3-yl)acetic acid], 0.662 µM.

As for `CCn1c(CCCc2ccc(-c3cc(CC(=O)O)ccn3)cc2)nn(Cc2ccc(C(C)(C)C)cc2)c1=O` [Example 45, 2-(2-{4-[3-(1-{[4-(tert-Butyl)phenyl]methyl}-4-ethyl-5-oxo-1,2,4-triazolin-3-yl)propyl]phenyl}-4-pyridyl)acetic acid], the IC50 was 0.306 µM.

For the origin of these results see patent US9505728B2, “Triazolone compounds and uses thereof” (INCEPTION 2, INC., priority 2012, dated 2016).
